Results on 2 compounds are retold here after US20230302036A1, “COMPOSITIONS FOR TREATMENT OF SPINAL MUSCULAR ATROPHY” (priority 2020, published 2023).

The test system of series [1] is RNAPII (total, P-Ser5, P-Ser2) along the SMN2 gene. Put plainly: ChIP-qPCR of RNAPII distribution along the SMN2 gene in HEK293T cells. Type of series: cell-based, human. (In qPCR the cycle at which signal appears reflects the starting amount.)
Method: H3K9me2 (FIG. 2B), total RNAPII (FIG. 2C), P-Ser5 RNAPII (FIG. 2D), and P-Ser2 RNAPII (FIG. 2E) distribution along the SMN2 gene, assessed by ChIP-qPCR in HEK293T cells transfected with the scramble oligo (CTRL) or ASO1 and treated with 10 mM VPA. Four independent immunoprecipitation replicates were conducted per experiment. Data are represented as mean ± S.D. (n = 4, *p < 0.05, two-tailed Student’s t test).
Total distribution of H3K9me2 (FIG. 3C), total RNAPII (FIG. 3D), P-Ser5 RNAPII (FIG. 3E), and P-Ser2 RNAPII (FIG. 3F) along the SMN2 gene is shown. This distribution was assessed by ChIP-qPCR in HEK293T cells transfected with the scramble oligo (CTRL) or ASO2 and treated with 10 mM VPA. Four independent immunoprecipitation replicates were conducted per experiment. Data are represented as mean ± S.D. (n = 4, *p < 0.05, two-tailed Student’s t test).
Approximately 2×10^6 HEK293T cells per sample were treated for 10 min in 1% (v/v) formaldehyde at room temperature to crosslink protein-DNA complexes. Crosslinking was stopped with glycine at a final concentration of 125 mM. Cells were washed twice with cold PBS and swelled on ice for 10 min in 25 mM HEPES pH 8, 1.5 mM MgCl2, 10 mM KCl, 0.1% NP-40, 1 mM DTT and 1× protease inhibitor cocktail set III (Calbiochem). Following Dounce homogenization, the nuclei were collected and resuspended in 1 ml sonication buffer (50 mM HEPES pH 8, 140 mM NaCl, 1 mM EDTA, 0.1% sodium deoxycholate, 0.1% SDS and 1× protease inhibitor cocktail). DNA was sonicated in an ultrasonic bath (Bioruptor Diagenode) to an average length of 200-500 bp. After addition of 1% (v/v) Triton X-100, samples were centrifuged at 15,000 ×g. Supernatants were immunoprecipitated O/N with 40 µl of pre-coated anti-IgG magnetic beads (Dynabeads M-280, Invitrogen) previously incubated with the antibody of interest for 6 hr at 4° C. The antibodies used were: rabbit anti-H3 (2 µg, Abcam ab1791), mouse anti-H3K9me2 (4 µg, Abcam ab1220), rabbit anti H3K9me3 (4 µg, Abcam ab8898), rabbit anti H3K9Ac (2 µg, Abcam ab4441), rabbit anti Rpb1 NTD (2 µg, Cell Signaling, D8L4Y), rabbit Phospho-Rpb1 CTD Ser2 (2 µg, Cell Signaling, E1Z3G), rabbit Phospho-Rpb1 CTD Ser5 (2 µg, Cell Signaling, D9N5I). Control immunoprecipitations were performed with rabbit IgG (1 µg, Abcam ab171870). Beads were washed sequentially for 5 min each in Low-salt (20 mM Tris-HCl pH 8, 150 mM NaCl, 2 mM EDTA, 1% Triton X-100, 0.1% SDS), High-Salt (20 mM Tris-HCl pH 8, 500 mM NaCl, 2 mM EDTA, 1% Triton X-100, 0.1% SDS) and LiCl buffer (10 mM Tris pH 8.0, 1 mM EDTA, 250 mM LiCl, 1% NP-40, 1% Na-deoxycholate) for 5 min at 4° C. and then twice in TE 1x for 2 min at room temperature. Beads were eluted in 1% SDS and 100 mM NaHCO3 buffer for 15 min at 65° C. and crosslinking was reversed for 6 hr after addition of NaCl to a final concentration of 200 mM. Chromatin was precipitated with ethanol overnight, treated with 20 µg proteinase K, and purified by phenol-chloroform extraction. Immunoprecipitated DNA (1.5 µl) and serial dilutions of the 10% input DNA (1:4, 1:20, 1: 100, and 1:500) were analyzed by SYBR-Green real-time qPCR.
Series [2] deals with SMA mice (Smn-/-; SMN2 2TG/0). Description: Kaplan-Meier survival of severe SMA mice. Format: in vivo, mouse. Conditions: s.c. ASO1 at P0 and P1 and/or one s.c. VPA 10 µg/g. How it is done:
(§1) Kaplan-Meier survival plot (FIG. 4A) and growth curves (FIG. 4B) of SMA mice, following subcutaneous administration at P0 and P1 of 16.8 µg ASO1 (n=18) or saline (n=14), one subcutaneous dose before P3 of 10 µg per g of body weight VPA (n=12), or both treatments together (n=20). ASO1-treated Smn^+/- heterozygote littermates (n=15) served as controls. Scramble (Ctrl) (n=12, 40 trials), VPA (n=13, 50 trials), ASO1 (n=11, 50 trials), ASO1 + VPA (n=17, 68 trials), and untreated heterozygotes (n=12, 36 trials). Statistical significance was analyzed by two-way repeated measures ANOVA. P < 0.05 was considered statistically significant; data are represented as mean + SD. In the righting-reflex test, the time it took a mouse to right itself […] on a flat surface was measured. In the grip-strength test, the angle at which the pups fell from a tablet with a rough to which they held on by their forelimbs was measured.
FIGS. 7A-H show ASO1 and TSA combined treatment in mice. Kaplan-Meier survival plot (FIG. 7A) and growth curves (FIG. 7B) of SMA mice after subcutaneous administration at P0 and P1 of 16.8 µg ASO1 (n=20) or vehicle (n=12), one subcutaneous dose of 10 µg per g of body weight TSA (n=15) at P2, or both treatments together (n=24), are shown. ASO1-treated heterozygotes (n=18) served as controls. Statistical significance was analyzed by two-way repeated measures ANOVA. P < 0.05 was considered statistically significant; data are represented as mean + SD.
All mouse protocols were in accordance with Cold Spring Harbor Laboratory’s Institutional Animal Care and Use Committee guidelines. The mild Hung mouse model (Smn^-^/-; SMN2^2TG/2TG) was the strain FVB.Cg-Smn1^tm1Hung Tg(SMN2)2^Hung/J, purchased from Jackson Laboratory (stock no. 005058). The severe SMA model (Smn^-/-; SMN2^2TG/0) was generated as previously described (Hua et al., Nature 478, 123-126, 2011).
Oligonucleotide solutions in saline were injected subcutaneously into the upper back at P0 and P1 with a […] and 33-gauge custom removable needle (Hamilton) as described (Hua et al., Nature 478, 123-126, 2011). All drugs were injected subcutaneously before P3, contralateral to the oligonucleotide-injection site, with TSA (10 mg/kg) or VPA (10 mg/kg) or vehicle. Mouse tissues and organs, including liver, thigh muscles, kidney, and spinal cord, were snap-frozen in liquid N2 and stored at -70° C.
Introduction of a human SMN2 transgene in an Smn^-/- background rescues embryonic lethality, displaying a range of phenotypes, depending on the SMN2 copy number (Hsieh-Li et al., Nat. Genet. 24, 66-70, 2000; Monani et al., Hum Mol Genet. 12; 333-339, 2000). […]

The subject of series [3] is SMA mice (Smn-/-; SMN2 2TG/0). Description: Growth curves (body weight gain) of severe SMA mice. Format: in vivo, mouse. Conditions: ASO1 at P0 and P1 and/or VPA 10 µg/g s.c. The method, then: as §1
FIGS. 7A-H show ASO1 and TSA combined treatment in mice. Kaplan-Meier survival plot (FIG. 7A) and growth curves (FIG. 7B) of SMA mice after subcutaneous administration at P0 and P1 of 16.8 µg ASO1 (n=20) or vehicle (n=12), one subcutaneous dose of 10 µg per g of body weight TSA (n=15) at P2, or both treatments together (n=24), are shown. ASO1-treated heterozygotes (n=18) served as controls. Statistical significance was analyzed by two-way repeated measures ANOVA. […]

In series [4] the test system is H3K9me2 on merged SMN1 and SMN2 genes. Description: Genome-wide ChIP-seq analysis of H3K9me2 mark deposition in HEK293T cells. Type of series: cell-based, human.
Method: The effects of ASO1 and/or VPA on the deployment of the H3K9me2 mark throughout the genome by using ChIP-seq were analyzed.

“Also recorded” adds a separate entry of the source. Oligonucleotides are written 5' to 3', each unit as a sugar letter and its base; * is a phosphorothioate linkage, no mark a phosphodiester; rarer units and linkages stand in square brackets, end groups in braces. Plain capitals give the bases only. e = 2'-O-(2-methoxyethyl) (MOE); [5mC] = 5-methylcytosine

Take `CCCC(CCC)C(=O)O` [VPA, valproic acid]: the “RNAPII peak (total, P-Ser5, P-Ser2) in ASO1-transfected cells additionally treated with VPA” value in series [1] (ASO1 plus 10 mM VPA) is “abolished”. Also, in series [1] (ASO2 plus 10 mM VPA), the “roadblocks to elongation in ASO2-transfected cells treated with VPA” value is recorded as “abolished”. For the same compound, the “survival (in words)” value in series [2] is listed as “died before P10; also recorded: lack of an effect per se”. Further, the “body weight gain in the surviving mice” value in series [3] is “lack of an effect per se”. For the same compound, in series [4] (ASO1+VPA/control+VPA, 11,738 protein-coding genes), the “reverting effect of VPA on SMN1/2 compared with control genes” value is “higher than for the majority of the control genes”. Further, in series [4] (HEK293T treated with VPA, merged SMN1 and SMN2 genes), the “decrease of H3K9me2 methylation mark” value came out at 67%.
With “ASO1: 5′-ATTCACTTTCATAATGCTGG-3′ 2′-O-methoxyethyl-modified oligonucleotide with phosphorothioate backbone and all 5-methyl cytosines; nusinersen variant with 2-nucleotide extension (antisense eA*eT*eT*e[5mC]*eA*e[5mC]*eT*eT*eT*e[5mC]*eA*eT*eA*eA*eT*eG*e[5mC]*eT*eG*eG)”, in series [1] (ASO transfection vs scramble), the “P-Ser2 RNAPII density” value is “greatly increased”, the “P-Ser5 RNAPII density” value is reported as “greatly increased” and the “total RNAPII density” value was “greatly increased”. In series [2], the median survival was ~ 20 days, the “mice still alive at P50” value is on record as 15% and the “survival (in words)” value is “significantly extended”. The “share of control-set genes with lower ASO1/control fold enrichment than SMN1/2” value in series [4] (11,738 protein-coding genes as reference) is ~ 91 % of the genes in the control set. For the same compound, the “enrichment of H3K9me2 ChIP-seq reads compared with the control” value in series [4] (HEK293T, merged SMN1 and SMN2 genes) worked out at 44%.
